Laboratory results: patent US8785486B2, “Imidazo[1,2-A]pyridine derivatives and their use as positive allosteric modulators of mGluR2 receptors” (Janssen Pharmaceuticals, Inc., priority 2007, dated 2014)

Assays:
human mGluR2 receptor = molecular target: T1, human mGluR2 receptor (Homo sapiens, UniProt Q14416); assay: [35S]GTPγS binding assay (PAM assay) using membranes from cells transfected with the human mGluR2 receptor; assay type: biochemical; conditions: membranes of CHO cells with human mGluR2, glutamate at predetermined EC25 concentration, averages of duplicate values of 11-concentration response curves; for EC50: read-out: GTPγS - hR2 PAM pEC50 (converted)
T1 construct: expressed in transfected cells; host or cells: CHO cells
Protocol: The [^35S]GTPγS binding assay is a functional membrane-based assay used to study G-protein coupled receptor (GPCR) function whereby incorporation of a non-hydrolysable form of GTP, [^35S]GTPγS (guanosine 5′-triphosphate, labelled with […] ^35S), is measured.
CHO-cells were cultured to pre-confluence and stimulated with 5 mM butyrate for 24 hours, prior to washing in PBS, and then collection by scraping in homogenisation buffer (50 mM Tris-HCl buffer, pH 7.4, 4° C.). Cell lysates were homogenized briefly (15 s) using an ultra-turrax homogenizer. The homogenate was centrifuged at 23 500×g for 10 minutes and the supernatant discarded. The pellet was resuspended in 5 mM Tris-HCl, pH 7.4 and centrifuged again (30 000×g, 20 min, 4° C.). The final pellet was resuspended in 50 mM HEPES, pH 7.4 and stored at −80° C. in appropriate aliquots before use. Protein concentration was determined by the Bradford method (Bio-Rad, USA) with bovine serum albumin as standard.
Measurement of mGluR2 positive allosteric modulatory activity of test compounds in membranes containing human mGluR2 was performed using frozen membranes that were thawed and briefly homogenised prior to pre-incubation in 96-well microplates (15 μg/assay well, 30 minutes, 30° C.) in assay buffer (50 mM HEPES pH 7.4, 100 mM NaCl, 3 mM MgCl2, 50 μM GDP, 10 μg/ml saponin,) with increasing concentrations of positive allosteric modulator (from 0.3 nM to 50 μM) and either a minimal pre-determined concentration of glutamate (PAM assay), or no added glutamate. […] After addition of [^35S]GTPγS (0.1 nM, f.c.) to achieve a total reaction volume of 200 μl, microplates were shaken briefly and further incubated to allow [^35S]GTPγS incorporation on activation (30 minutes, 30° C.). The reaction was stopped by rapid vacuum filtration over glass-fibre filter plates (Unifilter 96-well GF/B filter plates, Perkin-Elmer, Downers Grove, USA) microplate using a 96-well plate cell harvester (Filtermate, Perkin-Elmer, USA), and then by washing three times with 300 μl of ice-cold wash buffer (Na2PO4.2H2O 10 mM, NaH2PO4.H2O 10 mM, pH=7.4). Filters were then air-dried, and 40 μl of liquid scintillation cocktail (Microscint-O) was added to each well, and membrane-bound [^35S]GTPγS was measured in a 96-well scintillation plate reader (Top-Count, Perkin-Elmer, USA). Non-specific [^35S]GTPγS binding is determined in the presence of cold 10 μM GTP. Each curve was performed at least once using duplicate sample per data point and at 11 concentrations.
The concentration-response curves of representative compounds of the present invention in the presence of added EC25 of mGluR2 agonist glutamate to determine positive allosteric modulation (PAM), were generated using the Prism GraphPad software (Graph Pad Inc, San Diego, USA). The curves were fitted to a four-parameter logistic equation (Y=Bottom+(Top-Bottom)/(1+10^((Log EC50−X)*Hill Slope) allowing determination of EC50 values. The EC50 is the concentration of a compound that causes a half-maximal potentiation of the glutamate response. This is calculated by subtracting the maximal responses of glutamate in presence of a fully saturating concentration of a positive allosteric modulator from the response of glutamate in absence of a positive allosteric modulator. The concentration producing the half-maximal effect is then calculated as EC50

T1 sequence (Q14416 19-872): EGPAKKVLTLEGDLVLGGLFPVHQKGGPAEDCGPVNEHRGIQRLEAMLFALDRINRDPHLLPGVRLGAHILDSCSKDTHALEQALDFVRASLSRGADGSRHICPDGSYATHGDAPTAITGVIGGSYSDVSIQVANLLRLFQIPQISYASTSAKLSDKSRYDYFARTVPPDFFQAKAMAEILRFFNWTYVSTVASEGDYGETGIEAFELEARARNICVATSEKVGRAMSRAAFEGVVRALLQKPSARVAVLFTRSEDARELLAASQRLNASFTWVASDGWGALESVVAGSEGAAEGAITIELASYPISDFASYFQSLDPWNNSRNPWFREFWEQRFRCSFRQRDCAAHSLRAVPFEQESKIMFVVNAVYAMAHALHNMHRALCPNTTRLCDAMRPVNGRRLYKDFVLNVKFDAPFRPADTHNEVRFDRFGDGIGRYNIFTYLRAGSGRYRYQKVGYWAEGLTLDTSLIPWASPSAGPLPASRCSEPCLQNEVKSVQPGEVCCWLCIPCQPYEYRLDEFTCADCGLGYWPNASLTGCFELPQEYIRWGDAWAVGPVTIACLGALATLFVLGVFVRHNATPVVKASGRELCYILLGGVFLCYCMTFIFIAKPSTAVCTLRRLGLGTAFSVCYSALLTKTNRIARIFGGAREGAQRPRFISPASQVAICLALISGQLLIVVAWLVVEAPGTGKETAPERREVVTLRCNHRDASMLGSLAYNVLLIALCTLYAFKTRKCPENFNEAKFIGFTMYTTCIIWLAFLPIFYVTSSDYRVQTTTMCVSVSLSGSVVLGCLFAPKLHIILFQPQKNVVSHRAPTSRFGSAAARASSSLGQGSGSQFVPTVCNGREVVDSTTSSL

Row | Compound | melting point | EC50 (human mGluR2 receptor) | GTPγS - hR2 PAM pEC50 (human mGluR2 receptor)
1 | N#Cc1c(N2CCC(F)(c3ccccc3)CC2)ccn2c(CC(F)(F)F)cnc12 [Example 68, 7-(4-Fluoro-4-phenyl-piperidin-1-yl)-3-(2,2,2-trifluoro-ethyl)-imidazo[1,2-a]pyridine-8-carbonitrile] | 214 °C | 0.0933 µM | 
2 | N#Cc1c(-c2ccc(Sc3ccccc3)cc2)ccn2c(CC(F)(F)F)cnc12 [Example 71] | 195.6 °C | 0.182 µM | 
3 | Cc1cc(Oc2ccc(-c3ccn4c(CCCC(F)(F)F)cnc4c3C#N)cc2F)ccn1 [Example 73] | 234.1 °C | 1.05 µM | 
4 | N#Cc1c(-c2ccc(Oc3ccc(F)cc3)cc2)ccn2c(CC(F)(F)F)cnc12 [Example 74] | 163 °C | 0.17 µM | 
5 | Cc1cc(Oc2ccc(-c3ccn4c(CCC5CC5)cnc4c3C#N)cc2F)ccn1 [Example 75] | 277.2 °C | 0.372 µM | 
6 | N#Cc1c(-c2ccc(Oc3ccccc3F)cc2)ccn2c(CC(F)(F)F)cnc12 [Example 77] | 177.9 °C | 0.105 µM | 
7 | N#Cc1c(-c2ccc(Oc3cccc(F)c3)cc2)ccn2c(CC(F)(F)F)cnc12 [Example 78] | 176 °C | 0.219 µM | 
8 | N#Cc1c(-c2ccc(C(F)c3ccccc3)cc2)ccn2c(CC(F)(F)F)cnc12 (stereo not drawn) [Example 79] | 173.4 °C | 0.257 µM | 
9 | N#Cc1c(-c2ccc(Oc3ccccc3)cc2)ccn2c(CC(F)(F)F)cnc12 [Example 80] | 174.3 °C |  | 6.73
10 | CC(O)(c1ccccc1)c1ccc(-c2ccn3c(CC(F)(F)F)cnc3c2C#N)cc1 (stereo not drawn) [Example 81] | 102.7 °C | 0.525 µM | 
11 | CC(C)(O)c1ccc(Oc2ccc(-c3ccn4c(CC(F)(F)F)cnc4c3C#N)cc2)cc1 [Example 82] | 143.2 °C | 0.0447 µM | 
12 | C[C@]1(O)CC[C@@H](Nc2ccc(-c3ccn4c(CC(F)(F)F)cnc4c3C#N)cc2Cl)CC1 [Example 89] | 161.6 °C | 0.275 µM | 
13 | N#Cc1c(-c2ccc(N[C@H]3CC[C@H](O)CC3)cc2)ccn2c(CC(F)(F)F)cnc12 [Example 91, 7-[4-(4-hydroxy-cyclohexylamino)-phenyl]-3-(2,2,2-trifluoro-ethyl)-imidazo[1,2-a]pyridine-8-carbonitrile] | 137.5 °C | 1.12 µM | 
14 | O[C@H]1CC[C@H](Nc2ccc(-c3ccn4c(CC(F)(F)F)cnc4c3Cl)cc2Cl)CC1 [Example 101, 4-{2-Chloro-4-[8-chloro-3-(2,2,2-trifluoro-ethyl)-imidazo[1,2-a]pyridin-7-yl]phenylamino}-cyclohexanol] | 183.1 °C | 0.155 µM | 

Continued, values first:

Row | melting point | EC50 (human mGluR2 receptor) | GTPγS - hR2 PAM pEC50 (human mGluR2 receptor) | Compound
15 | 230.7 °C |  | 6.15 | N#Cc1c(-c2ccc(NC3CCOCC3)c(Cl)c2)ccn2c(CC(F)(F)F)cnc12 [Example 92]
16 | 202.6 °C | 0.174 µM |  | C[C@]1(O)CC[C@H](Nc2ccc(-c3ccn4c(CC(F)(F)F)cnc4c3C#N)cc2Cl)CC1 [Example 94]
17 | 123.7 °C | 0.295 µM |  | N#Cc1c(-c2ccc(N[C@H]3CC[C@H](O)CC3)c(Cl)c2)ccn2c(CC(F)(F)F)cnc12 [Example 96, (trans)-7-[3-Chloro-4-(4-hydroxy-cyclohexylamino)-phenyl]-3-(2,2,2-trifluoro-ethyl)-imidazo[1,2-a]pyridine-8-carbonitrile]
18 | 149.7 °C | 0.631 µM |  | FC(F)(F)Cc1cnc2c(Cl)c(-c3ccc(NC4CCOCC4)c(Cl)c3)ccn12 [Example 99]
19 | 205.1 °C | 0.126 µM |  | C[C@]1(O)CC[C@H](Nc2ccc(-c3ccn4c(CC(F)(F)F)cnc4c3Cl)cc2Cl)CC1 [Example 100, (trans)-4-{2-Chloro-4-[8-chloro-3-(2,2,2-trifluoro-ethyl)-imidazo[1,2-a]pyridin-7-yl]-phenylamino}-1-methyl-cyclohexanol]
20 | 210.2 °C | 0.933 µM |  | N#Cc1c(-c2ccc(O[C@H]3CC[C@@H](O)CC3)c(Cl)c2)ccn2c(CC(F)(F)F)cnc12 [Example 103]
21 | 174 °C | 0.676 µM |  | CC(C)(O)C1CCN(c2ccc(-c3ccn4c(CC(F)(F)F)cnc4c3C#N)cc2)CC1 [Example 112]
22 | 207.1 °C | 0.141 µM |  | N#Cc1c(-c2ccc(COc3cccc(F)c3)cc2)ccn2c(CC(F)(F)F)cnc12 [Example 114]
23 | 198.7 °C | 0.214 µM |  | N#Cc1c(N2CCC3(CCc4ccccc4O3)CC2)ccn2c(CC(F)(F)F)cnc12 [Example 115]
24 | 252.5 °C | 0.174 µM |  | N#Cc1c(N2CCc3c(oc4ccccc34)C2)ccn2c(CC(F)(F)F)cnc12 [Example 116]
